Structures are written as SMILES.

The target of series [1] is T1, human synthetic MSK1 (14-438-K, Millipore) (Homo sapiens, UniProt O75582).
T1 construct: purchased Millipore 14-438-K
Briefly: MSK1 enzymatic inhibition assay (Kinase-Glo luminescence). Format: biochemical. To be noted: for inhibition at 1 µM: compound at 1 µM, read-out: MSK1 % Inhibition 1 µM; for inhibition at 1 µM / inhibition at 10 µM / IC50: ± Standard Deviation (n = 4); for inhibition at 10 µM: compound at 10 µM, read-out: MSK1 % Inhibition 10 µM; for IC50: 8 concentrations 0.03-100 µM, read-out: MSK1 IC50. The protocol:
All results are summarized in Table 1, Table 2, Table 3, Table 4 and Table 5 and on Figure 4. […]
An orthogonal luminescence-based assay Kinase-Glo® (Promega, Madison, WI, USA) was used to validate the hits, quantifying the amount of the remaining ATP in the solution following the kinase reaction. Enzymatic reactions were performed up to 4h at room temperature in presence of 3 µM ATP. All compounds were tested in quadruplicates at 1 µM and 10 µM. […] Luminescence was measured with EnVision Plate Reader (Perkin Elmer).

Series [2] in a line: WST-1 cytotoxicity test (cell viability). To be noted: human, human pulmonary (lung) fibroblasts. Background: Formazan colour is commonly taken as a measure of viable cells.
Method: (§1) A WST1 (Roche) reagent assay was used to determine the cytotoxicity of compounds at 24 h of incubation. […] The absorbance was measured at 450 nm.
Series [3] relates to human pulmonary fibroblasts. The series is described as follows: WST-1 cytotoxicity test (cell viability). The conditions noted are these: for cytotoxicity (in words): WST-1, concentrations up to 30 µM; for cytotoxicity at 30 µM (in words): compound at 30 µM.
Method: as §1
The test system of a further series is IL-6 production. Briefly: Inhibition of IL-6 production (ELISA) in IL-1β-stimulated primary human lung fibroblasts. To be noted: Homo sapiens, Fibroblast; for inhibition at 10 µM: read-out: Il-6 % Inhibition 10 µM; for inhibition at 30 µM: read-out: Il-6 % Inhibition 30 µM.
The test system of a further series is Balb/C mice. Briefly: OVA-induced asthma model, inflammatory cell recruitment in BAL. Format: in vivo. The conditions noted are these: vs vehicle-treated OVA mice. The method, then:
We decided to use this compound in vivo together with our newly synthesized compound 49d.
Animal experimentation was conducted in accordance with the European Communities Council Directive of 24 November 1986 (86/609/EEC) and the French ministry with the approval of the Regional Ethics Committee for animal research at the Strasbourg University (Authorization number 2015080309399690). Nine week-old male Balb/c mice (Janvier) were sensitized on days 0 and 7 by i.p. injection of ovalbumin (OVA, 50 μg, grade V, Sigma-Aldrich) adsorbed on aluminium hydroxide (2 mg, Sigma-Aldrich) in PBS. Mice were challenged intranasally (i.n.) with OVA (10 μg) in 25 μL of saline on days 18–21. Control mice received i.n. administrations of saline alone. Mice received compound (10 or 30 mg/kg) in saline solution with DMSO 5% or vehicle (saline, DMSO 5%) administered i.p. 2 h before each saline or OVA challenge. Collection of the bronchoalveolar lavage (BAL) fluid was performed 24 h after the last OVA challenge. Cell counts were assessed by flow cytometry (LSRII® cytometer, BD bioscience). BAL cells were added with FCblock (5 μL, 553142, BD bioscience) in a black microplate, incubated for 20 min at room temperature. Then, marker antibodies were added: CD45-AlexaFluor700 (103128, BioLegend, San Diego, CA, USA), CD11b-APC-Cy7 (557657, BD bioscience), CD11c-FITC (557400, BD bioscience, Franklin Lakes, NJ, USA), Gr-1-Pe-eFluor610 (61-5931-82, eBioscience). Antibodies were incubated for 30 min before DAPI (5 μL, BD bioscience) addition, and flow cytometry was performed immediately. Eosinophils were selected by CD45^+, CD11b^+, CD11C^- and GR-1^- gating.

[4] abbreviates: 10 mg/kg i.p. 2 h before each OVA challenge.
Setting [5] is: 30 mg/kg i.p. 2 h before each OVA challenge.

T1 sequence (O75582 whole entry): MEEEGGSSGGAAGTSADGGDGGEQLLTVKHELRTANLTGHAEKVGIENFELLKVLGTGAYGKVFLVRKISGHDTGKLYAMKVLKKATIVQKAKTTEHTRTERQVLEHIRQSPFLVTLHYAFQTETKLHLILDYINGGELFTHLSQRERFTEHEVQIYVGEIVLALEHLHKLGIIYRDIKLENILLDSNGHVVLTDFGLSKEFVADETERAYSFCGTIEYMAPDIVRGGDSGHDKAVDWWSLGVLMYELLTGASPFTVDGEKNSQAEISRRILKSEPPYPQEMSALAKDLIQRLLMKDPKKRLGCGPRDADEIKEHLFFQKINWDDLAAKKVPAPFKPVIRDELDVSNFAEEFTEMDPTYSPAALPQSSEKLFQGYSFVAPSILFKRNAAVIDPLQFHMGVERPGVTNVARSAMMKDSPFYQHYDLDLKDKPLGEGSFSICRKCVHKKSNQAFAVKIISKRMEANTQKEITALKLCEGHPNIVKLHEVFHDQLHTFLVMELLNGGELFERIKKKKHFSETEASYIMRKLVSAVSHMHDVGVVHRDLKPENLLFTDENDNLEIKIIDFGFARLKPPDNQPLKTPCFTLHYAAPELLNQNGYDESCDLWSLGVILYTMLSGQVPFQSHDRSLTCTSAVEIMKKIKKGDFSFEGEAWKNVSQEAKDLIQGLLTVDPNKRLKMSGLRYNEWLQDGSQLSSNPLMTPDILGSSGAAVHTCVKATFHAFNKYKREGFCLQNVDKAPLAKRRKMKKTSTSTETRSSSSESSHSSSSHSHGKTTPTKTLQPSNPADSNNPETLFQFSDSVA
Method for IL-6 production: Primary human lung fibroblasts were cultured in DMEM/F-12 medium (Gibco Waltham, MA, USA) complemented with 10% fetal bovine serum (Gibco), penicillin (50 U/mL, Gibco), streptomycin (50 µg/mL, Gibco), L-glutamine (2 mM, Gibco), non-essential amino acids (0.1 mM, Gibco) and insulin (0.12 U/mL, Lilly, Indianapolis, IN, USA) Cells were used at passage 7.

As for `N=C(N)Nc1cccc(-c2ccccc2F)n1` [Compound 1j, 1-[6-(2-Fluorophenyl)pyridin-2-yl] guanidiniumtrifluoroacetate], in series [1], the inhibition – broadly, how much of the control response was suppressed – at 1 µM was determined as 6 ± 3%; the inhibition at 10 µM was found to be 45 ± 9%; the concentration for half-maximal inhibition (IC50) (commonly the point on the concentration scale where inhibition reaches its midpoint) amounted to 5 ± 0.5 µM. In series [2], the viability (commonly a read-out of living cells in per cent, often relative to untreated cells) at 24 h, 10 µM worked out at 100 ± 8% and the viability at 24 h, 30 µM turned out to be 41 ± 9%. Besides, in series [3], the “cytotoxicity (in words)” value is “cytotoxic” and the “cytotoxicity at 30 µM (in words)” value was “cytotoxic”. Moreover, the inhibition at 10 µM with IL-6 production is 42 ± 4%.

On to `Br.NC1=Nc2cccc(-c3ccccc3Cl)c2CN1` [Compound 37f, 5-(2-Chlorophenyl)-3,4-dihydroquinazolin-2-amine Hydrobromide], for which the melting point (in general, the temperature of the solid-liquid transition) is 178 to 179 °C. In addition, in series [1], the inhibition at 1 µM came to 0%, the inhibition at 10 µM was determined as 38 ± 4% and the IC50 amounted to 16.4 ± 4 µM. In series [2], this molecule returned a viability at 24 h, 10 µM of 100 ± 8% and a viability at 24 h, 30 µM of 41 ± 9%. For the same molecule, the “cytotoxicity at 30 µM (in words)” value in series [3] is “cytotoxic”. In addition, the inhibition at 10 µM in the series on IL-6 production came to 17 ± 5%.

Consider `Br.Nc1nc2c(-c3ccccc3Cl)cccc2[nH]1` [Compound 49d, 4-(2-Chlorophenyl)-1H-benzo[d]imidazol-2-amine Hydrobromide], for which, in series [1], the inhibition at 1 µM came out at 21 ± 5%, the inhibition at 10 µM amounted to 71 ± 7% and the IC50 stood at 1.6 ± 0.1 µM. The “fold more potent MSK1 inhibitor compared to the parent compound” value in series [1] (versus parent compound 1a) came to 10 fold. Moreover, in the series with Balb/C mice (setting [4]), the “inhibition of B cell infiltration in BAL” value turned out to be 47 ± 1%, the “inhibition of eosinophil infiltration in BAL” value was found to be 39 ± 3% and the “inhibition of total cell infiltration in BAL” value is reported as 33 ± 3%. In series [2], this molecule had a viability at 24 h, 10 µM of 85 ± 13% and a viability at 24 h, 30 µM of 76 ± 12%. Further, the “cytotoxicity (in words)” value in series [3] is reported as “non-cytotoxic”. In the series on IL-6 production, the inhibition at 10 µM was determined as 39 ± 15% and the inhibition at 30 µM came to 57 ± 2%.

On to `O=C1NCCc2[nH]c(-c3ccncc3)cc21` [PHA767491, reference compound], for which, in series [1], the inhibition at 1 µM amounted to 72 ± 5% and the inhibition at 10 µM came to 94 ± 4%. In the series on Balb/C mice (setting [5]), the “decrease of B cells infiltration in BAL” value was 68 ± 7%, the “decrease of eosinophil infiltration in BAL” value is reported as 57 ± 7% and the “decrease of total cell infiltration in BAL” value amounted to 51 ± 6%. In series [2], the viability at 24 h, 10 µM stood at 95 ± 9% and the viability at 24 h, 30 µM amounted to 87 ± 7%. Moreover, in the series on IL-6 production, the inhibition at 10 µM came out at 97 ± 1% and the inhibition at 30 µM is 98 ± 2%. The IC50 with IL-6 production (read-out: Il-6 IC50 (µM), IL-1β stimulation, 0.3-30 µM, n = 4) stood at 1 ± 0.1 µM.

(Values after PMC7828447, “Design, Synthesis and Biological Evaluation of Arylpyridin-2-yl Guanidine Derivatives and Cyclic Mimetics as Novel MSK1 Inhibitors. An Application in an Asthma Model” (Molecules, 2021).)
